Assay results: patent US9539298B2, “Lissencephaly therapeutic agent” (OSAKA CITY UNIVERSITY, priority 2010, dated 2017)

Test system: not given
Test: not given
Details: not given

Row | melting point | Structure (SMILES)
1 | 109.7 to 111.1 °C | COCCOC(=O)N[C@@H](CC(C)C)C(=O)N[C@@H](CCc1ccccc1)C(=O)C(=O)NC1CC1 [compound 15, ((1S)-1-((((1S)-2,3-Dioxo-3-cyclopropylamino-1-(phenylethyl)propyl)amino)carbonyl)-3-methylbutyl)carbamic acid 2-methoxyethyl ester]
2 | 115.8 to 116.2 °C | CC(C)C[C@H](NC(=O)O[C@H]1CCOC1)C(=O)N[C@@H](CCc1ccccc1)C(=O)C(=O)NC1CC1 [compound 16]
3 | 114.2 to 115.3 °C | COCCOC(=O)N[C@@H](CC(C)C)C(=O)N[C@@H](Cc1ccccc1)C(=O)C(=O)NC1CCC1 [compound 8, ((1S)-1-((((1S)-1-Benzyl-2,3-dioxo-3-(cyclobutylamino)propyl)amino)carbonyl)-3-methylbutyl)carbamic acid 2-methoxyethyl ester]
4 | 111.9 to 114.5 °C | CCNC(=O)C(=O)[C@H](CCc1ccccc1)NC(=O)[C@H](CC(C)C)NC(=O)O[C@H]1CCOC1 [compound 14, ((1S)-1-((((1S)-2,3-Dioxo-3-ethylamino-1-(phenylethyl)propyl)amino)carbonyl)-3-methylbutyl)carbamic acid (3S)-tetrahydrofuran-3-yl ester]
5 | 127 to 127.9 °C | COCCNC(=O)C(=O)[C@H](Cc1ccccc1)NC(=O)[C@H](CC(C)C)NC(=O)OCCOC [compound 12, ((1S)-1-((((1S)-1-Benzyl-2,3-dioxo-3-(2-methoxyethylamino)propyl)amino)carbonyl)-3-methylbutyl)carbamic acid 2-methoxyethyl ester]
6 | 158.9 to 160.7 °C | CCNC(=O)C(=O)[C@H](Cc1ccccc1)NC(=O)[C@H](CC(C)C)NC(=O)O[C@H]1CCOC1 [compound 2, ((1S)-1-((((1S)-1-Benzyl-2,3-dioxo-3-(ethylamino)propyl)amino)carbonyl)-3-methylbutyl)carbamic acid (3S)-tetrahydrofuran-3-yl ester]
7 | 169.2 to 170.5 °C | CC(C)C[C@H](NC(=O)O[C@H]1CCOC1)C(=O)N[C@@H](Cc1ccccc1)C(=O)C(=O)NC1CC1 [compound 5, ((1S)-1-((((1S)-1-Benzyl-3-(cyclopropylamino)-2,3-dioxopropyl)amino)carbonyl)-3-methylbutyl)carbamic acid (3S)-tetrahydrofuran-3-yl ester]
8 | 141.9 to 143.5 °C | COCCOC(=O)N[C@@H](CC(C)C)C(=O)N[C@@H](Cc1ccccc1)C(=O)C(=O)NC1Cc2ccccc2C1 [compound 11, ((1S)-1-((((1S)-1-Benzyl-2,3-dioxo-3-(2-indanylamino)propyl)amino)carbonyl)-3-methylbutyl)carbamic acid 2-methoxyethyl ester]
9 | 138 to 138.3 °C | CCNC(=O)C(=O)[C@H](Cc1ccccc1)NC(=O)[C@H](CC(C)C)NC(=O)OCCOC [compound 1, ((1S)-1-((((1S)-1-Benzyl-2,3-dioxo-3-(ethylamino)propyl)amino)carbonyl)-3-methylbutyl) carbamic acid 2-methoxyethyl ester]
10 | 137 to 138.2 °C | CC(C)C[C@H](NC(=O)OC1CCOCC1)C(=O)N[C@@H](Cc1ccccc1)C(=O)C(=O)NC1CC1 [compound 6, ((1S)-1-((((1S)-1-Benzyl-3-cyclopropylamino-2,3-dioxopropyl)amino)carbonyl)-3-methylbutyl)carbamic acid tetrahydro-4H-pyran-4-yl ester]
11 | 94 to 95.2 °C | CCCCNC(=O)C(=O)[C@H](Cc1ccccc1)NC(=O)[C@H](CC(C)C)NC(=O)OCCOC [compound 9, ((1S)-1-((((1S)-1-Benzyl-3-butylamino-2,3-dioxopropyl)amino)carbonyl)-3-methylbutyl)carbamic acid 2-methoxyethyl ester]
12 | 152.5 to 153.9 °C | COCCOC(=O)N[C@@H](CC(C)C)C(=O)N[C@@H](Cc1ccccc1)C(=O)C(=O)NCC(F)(F)F [compound 10, ((1S)-1-((((1S)-1-Benzyl-2,3-dioxo-3-(2,2,2-trifluoroethylamino)propyl)amino)carbonyl)-3-methylbutyl)carbamic acid 2-methoxyethyl ester]
13 | 108.8 to 109.9 °C | CCCNC(=O)C(=O)[C@H](Cc1ccccc1)NC(=O)[C@H](CC(C)C)NC(=O)OCCOC [compound 7, ((1S)-1-((((1S)-1-Benzyl-2,3-dioxo-3-(propylamino)propyl)amino)carbonyl)-3-methylbutyl)carbamic acid 2-methoxyethyl ester]
14 | 53.3 to 54.1 °C | COCCOCCOC(=O)N[C@@H](CC(C)C)C(=O)N[C@@H](CC(C)C)C(=O)C(=O)NCCOc1ccccc1 [compound 22, ((1S)-1-((((1S)-2,3-Dioxo-1-(2-methylpropyl)-3-(2-phenoxyethyl)aminopropyl)amino)carbonyl)-3-methylbutyl) carbamic acid 5-methoxy-3-oxapentyl ester]
15 | 119.1 to 120.4 °C | CCNC(=O)C(=O)[C@H](CCc1ccccc1)NC(=O)[C@H](CC(C)C)NC(=O)OCCOC [compound 13, ((1S)-1-((((1S)-2,3-Dioxo-3-ethylamino-1-(phenylethyl)propyl)amino)carbonyl)-3-methylbutyl)carbamic acid 2-methoxyethyl ester]
16 | 99.7 to 100.5 °C | COCCOC(=O)N[C@@H](CC(C)C)C(=O)N[C@@H](CC(C)C)C(=O)C(=O)NCCOc1ccccc1 [compound 21, ((1S)-1-((((1S)-2,3-Dioxo-1-(2-methylpropyl)-3-(2-phenoxyethyl)aminopropyl)amino)carbonyl)-3-methylbutyl)carbamic acid 2-methoxyethyl ester]
17 | 140 to 141.8 °C | CCNC(=O)C(=O)[C@H](Cc1ccccc1)NC(=O)[C@H](CC(C)C)NC(=O)OC1CCOCC1 [compound 3, ((1S)-1-((((1S)-1-Benzyl-2,3-dioxo-3-(ethylamino)propyl)amino)carbonyl)-3-methylbutyl)carbamic acid tetrahydro-4H-pyran-4-yl ester]

Row | Structure (SMILES) | melting point
18 | COCCOC(=O)N[C@@H](CC(C)C)C(=O)N[C@@H](Cc1ccccc1)C(=O)C(=O)NC1CC1 [compound 4, ((1S)-1-((((1S)-1-Benzyl-2,3-dioxo-3-(cyclopropylamino)propyl)amino)carbonyl)-3-methylbutyl)carbamic acid 2-methoxyethyl ester] | 112.4 to 113.5 °C

Target: T1, μ-calpain (derived from human red blood cells) (Homo sapiens, UniProt P07384)
T1 construct: derived from human red blood cells; purchased Cosmo Bio Co., Ltd; host or cells: human red blood cells (tissue-purified)
T1 sequence (P07384 1-714): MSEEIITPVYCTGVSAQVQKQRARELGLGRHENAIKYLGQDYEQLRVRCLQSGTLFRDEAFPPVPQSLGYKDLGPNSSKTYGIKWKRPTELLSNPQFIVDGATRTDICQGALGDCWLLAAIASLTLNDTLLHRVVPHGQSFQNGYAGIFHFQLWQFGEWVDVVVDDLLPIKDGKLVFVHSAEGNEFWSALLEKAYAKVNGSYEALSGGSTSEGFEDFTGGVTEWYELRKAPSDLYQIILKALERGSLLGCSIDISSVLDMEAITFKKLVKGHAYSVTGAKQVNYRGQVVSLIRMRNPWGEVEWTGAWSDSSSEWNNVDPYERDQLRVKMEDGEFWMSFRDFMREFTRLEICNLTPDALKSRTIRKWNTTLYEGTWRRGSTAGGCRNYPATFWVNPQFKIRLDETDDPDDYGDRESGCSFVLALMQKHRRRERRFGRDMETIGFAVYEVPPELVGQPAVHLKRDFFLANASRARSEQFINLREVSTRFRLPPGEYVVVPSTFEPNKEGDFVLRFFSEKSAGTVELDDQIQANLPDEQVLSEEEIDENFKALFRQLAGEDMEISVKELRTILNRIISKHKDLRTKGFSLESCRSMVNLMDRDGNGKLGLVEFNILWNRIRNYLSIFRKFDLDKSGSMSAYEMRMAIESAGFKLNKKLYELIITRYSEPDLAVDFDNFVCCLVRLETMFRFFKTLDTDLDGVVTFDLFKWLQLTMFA
T1 sequence (P04632 1-268 partner): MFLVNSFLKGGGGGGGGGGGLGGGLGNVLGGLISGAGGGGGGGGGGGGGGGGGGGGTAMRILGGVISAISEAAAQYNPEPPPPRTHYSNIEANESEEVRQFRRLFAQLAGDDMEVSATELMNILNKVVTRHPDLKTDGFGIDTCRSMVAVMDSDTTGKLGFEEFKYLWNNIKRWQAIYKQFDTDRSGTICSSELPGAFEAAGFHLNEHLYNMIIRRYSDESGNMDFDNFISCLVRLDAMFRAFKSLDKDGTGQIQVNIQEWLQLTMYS
Test: Measurement of inhibitory activity against μ-calpain
Type: biochemical
Details: casein substrate, 30° C., 60 minutes; read-out: enzyme inhibitory activities (μM) μ-calpain
Method: The inhibitory activity against μ-calpain and m-calpain was assayed according to a published method (Anal. Biochem. 1993, vol. 208, p. 387-392). More specifically, 200 μL of a reaction solution containing 0.5 mg/mL casein, 50 mM Tris-HCl buffer (pH 7.4), 20 mM dithiothreitol and 1.0 nmol μ-calpain (derived from human red blood cells, Cosmo Bio Co., Ltd.) or m-calpain (derived from porcine kidney, Cosmo Bio Co., Ltd.) was added to individual 2.5 μL portions of DMSO solution containing a varying concentration of a test sample in a 96-well plate. Then, 50 μL of 20 mM aqueous calcium chloride was added thereto, and reaction was performed at 30° C. for 60 minutes. 100 μL of the reaction solution was transferred to another 96-well plate, and purified water (50 μL) and 50% aqueous solution (100 μL) of Protein Assay Dye Reagent (available from Bio-Rad Laboratories, Inc.; catalogue No. 500-600) were added thereto. The reaction mixture was allowed to stand at room temperature for 15 minutes, and its absorbance was measured at 595 nm. The absorbance of a reaction mixture prepared in the same manner as mentioned above, except that a DMSO solution containing no sample was used as a control value; and the absorbance of a reaction mixture prepared in the same manner as mentioned above, except that a 1 mM aqueous EDTA solution (50 μL) was used in place of 20 mM aqueous calcium chloride, was used as a blank value. […] Inhibition rate (%){1−(measured value−blank test value)/(control value−blank test value)}×100
The concentrations (IC50) are shown in Table 1 as enzyme (calpain) inhibitory activities (μM).

Row | Structure (SMILES) | IC50
19 | COCCOCCOCCOC(=O)N[C@@H](CC(C)C)C(=O)N[C@@H](Cc1ccccc1)C(=O)C(=O)NC1CC1 [compound 18, ((1S)-1-((((1S)-1-Benzyl-2,3-dioxo-3-(cyclopropylamino)propyl)amino)carbonyl)-3-methylbutyl)carbamic acid 8-methoxy-3,6-dioxaoctyl ester] | 0.19 µM
20 | COCCOC(=O)N[C@@H](CC(C)C)C(=O)N[C@@H](Cc1ccccc1)C(=O)C(=O)NC1CC1 [compound 4, ((1S)-1-((((1S)-1-Benzyl-2,3-dioxo-3-(cyclopropylamino)propyl)amino)carbonyl)-3-methylbutyl)carbamic acid 2-methoxyethyl ester] | 0.11 µM
